Measurements from the CheMixHub viscosity set.

Experiment: xn = mol fraction of the nth substance listed

CC(C)C=O + CCCC=O
viscosity [mPa·s], 100 kPa
Conditions | 293.5 K | 293.51 K | 317.08 K | 318.11 K
x1 = 0.12 | – | 23.21 | 17.25 | –
x1 = 0.2 | 2.307 | – | – | 1.698

Cc1ccc(NC(=O)NCCCCCCCCCCC(C)C)cc1NC(=O)NCCCCCCCCCCC(C)C + CCCCC
Conditions | viscosity [mPa·s]
293.15 K, 100 kPa, x1 = 0.0001 | 204

CC(C)(C)O + CCCCCC
303.2 K, 101.33 kPa
Conditions | viscosity [mPa·s]
x2 = 0.05 | 2.298
x2 = 0.1 | 1.677
x2 = 0.15 | 1.306
x2 = 0.2 | 1.052
x2 = 0.3 | 0.749
x2 = 0.4 | 0.568
x2 = 0.5 | 0.465
x2 = 0.6 | 0.41
x2 = 0.7 | 0.361
x2 = 0.8 | 0.319
x2 = 0.85 | 0.302
x2 = 0.9 | 0.289
x2 = 0.95 | 0.281

CCCCOC(=O)c1ccccc1 + CCCCCC
101 kPa
Conditions | viscosity [mPa·s]
298.15 K, x2 = 0.0788 | 2.272
298.15 K, x2 = 0.1269 | 2.042
298.15 K, x2 = 0.1801 | 1.81
298.15 K, x2 = 0.2539 | 1.536
298.15 K, x2 = 0.302 | 1.377
298.15 K, x2 = 0.3485 | 1.244
298.15 K, x2 = 0.4084 | 1.088
298.15 K, x2 = 0.4955 | 0.896
298.15 K, x2 = 0.5498 | 0.796
298.15 K, x2 = 0.6402 | 0.654
298.15 K, x2 = 0.6861 | 0.594
298.15 K, x2 = 0.7746 | 0.495
298.15 K, x2 = 0.8136 | 0.458
298.15 K, x2 = 0.8494 | 0.427
298.15 K, x2 = 0.8868 | 0.399
298.15 K, x2 = 0.9265 | 0.37
298.15 K, x2 = 0.961 | 0.348
308.15 K, x2 = 0.0668 | 1.923
308.15 K, x2 = 0.1277 | 1.7
308.15 K, x2 = 0.1875 | 1.5
308.15 K, x2 = 0.2458 | 1.331
308.15 K, x2 = 0.2926 | 1.211
308.15 K, x2 = 0.3554 | 1.063
308.15 K, x2 = 0.4013 | 0.966
308.15 K, x2 = 0.4549 | 0.863
308.15 K, x2 = 0.5013 | 0.785
308.15 K, x2 = 0.5515 | 0.707
308.15 K, x2 = 0.5967 | 0.644
308.15 K, x2 = 0.6407 | 0.59
308.15 K, x2 = 0.6896 | 0.536
308.15 K, x2 = 0.728 | 0.497
308.15 K, x2 = 0.7727 | 0.457
308.15 K, x2 = 0.8106 | 0.427
308.15 K, x2 = 0.8512 | 0.396
308.15 K, x2 = 0.8888 | 0.37
308.15 K, x2 = 0.9482 | 0.337
318.15 K, x2 = 0.0337 | 1.707
318.15 K, x2 = 0.1077 | 1.48
318.15 K, x2 = 0.1661 | 1.326
318.15 K, x2 = 0.231 | 1.166
318.15 K, x2 = 0.2845 | 1.05
318.15 K, x2 = 0.3438 | 0.934
318.15 K, x2 = 0.3951 | 0.846
318.15 K, x2 = 0.4512 | 0.757
318.15 K, x2 = 0.4998 | 0.691
318.15 K, x2 = 0.5513 | 0.624
318.15 K, x2 = 0.5518 | 0.625
318.15 K, x2 = 0.646 | 0.523
318.15 K, x2 = 0.6884 | 0.486
318.15 K, x2 = 0.7317 | 0.447
318.15 K, x2 = 0.7749 | 0.412
318.15 K, x2 = 0.8206 | 0.383
318.15 K, x2 = 0.8608 | 0.36
318.15 K, x2 = 0.9115 | 0.327
318.15 K, x2 = 0.9342 | 0.317

CCNCC + CCCCCC
viscosity [mPa·s], 101 kPa
Conditions | x2 = 0.0897 | x2 = 0.1836 | x2 = 0.2802 | x2 = 0.3738 | x2 = 0.474 | x2 = 0.5744 | x2 = 0.6849 | x2 = 0.7818 | x2 = 0.8954
298.15 K | 0.284 | 0.281 | 0.28 | 0.278 | 0.278 | 0.279 | 0.281 | 0.283 | 0.287
313.15 K | 0.254 | 0.251 | 0.25 | 0.249 | 0.25 | 0.25 | 0.251 | 0.254 | 0.257

CCOC(=O)CCCBr + CCCCCC
303.15 K, 101 kPa
Conditions | viscosity [mPa·s]
x1 = 0.2012 | 0.4062
x1 = 0.3949 | 0.5871
x1 = 0.4988 | 0.7248
x1 = 0.6008 | 0.8853
x1 = 0.7973 | 1.274
